The values below come from ChEMBL document CHEMBL5576044, “Inhibition of kynurenine production by N,O-substituted hydroxylamine derivatives” (Bioorg Med Chem Lett, 2024).

The nature of data set [1]: Drug concentration in C57BL/6 mouse serum at 100 mg per mouse administered via oral dosing after 2 hrs by LC-MS analysis. The format is ADME. As to conditions: read-out: Drug uptake.
Data set [2] in a line: Inhibition of kynurenine production in human SK-OV-3 cells. The format is functional, cell-based.
The target in data set [3] is Indoleamine 2,3-dioxygenase 1 (Homo sapiens) (UniProt P14902). As to the kind of experiment: Inhibition of recombinant human IDO1 at 10 ug/ml relative to control. As to conditions: dose 10.0 µg/ml.
A short description of data set [4]: Cytotoxicity against human SK-OV-3 cells. It counts as toxicity, cell-based.
Data set [5] can be described thus: Drug metabolism in human SK-OV-3 cell culture supernatant assessed as O-4-nitrobenzyl hydroxylamine Hydrochloride formation after 24 hrs. It counts as ADME, cell-based. To be noted: sk-ov-3, 24 h.
Data set [6] has as its target Indoleamine 2,3-dioxygenase 1 (Homo sapiens) (UniProt P14902). As to the kind of experiment: Inhibition of IDO1 in human SK-OV-3 cells. It counts as cell-based.
Data set [7] is described as follows: Drug metabolism in human SK-OV-3 cell culture supernatant assessed as O-benzylhydroxylamine Hydrochloride formation after 24 hrs. The format is ADME, cell-based. As to conditions: sk-ov-3, 24 h.
Data set [8] is described as follows: Drug degradation in human SK-OV-3 cell culture supernatant. The format is ADME, cell-based.
Data set [9] deals with Mus musculus. As to the kind of experiment: In vivo inhibition of kynurenine production in C57BL/6 mouse serum at 200 mg per mouse administered via ip and measured after 2 hrs by LC-MS analysis. The format is functional, organism-based.
Data set [10] has as its system Mus musculus. As to the kind of experiment: In vivo inhibition of kynurenine production in C57BL/6 mouse serum at 200 mg per mouse administered via oral dosing and measured after 2 hrs by LC-MS analysis. The format is functional, organism-based.
Data set [11] in a line: Drug concentration in C57BL/6 mouse serum at 200 mg per mouse administered via ip after 2 hrs by LC-MS analysis. As to conditions: read-out: Drug uptake. It counts as ADME, organism-based.
Data set [12] is described as follows: Drug concentration in C57BL/6 mouse serum at 200 mg per mouse administered via oral dosing after 2 hrs by LC-MS analysis. It counts as ADME. As to conditions: read-out: Drug uptake.
The nature of data set [13]: Drug metabolism in C57BL/6 mouse serum at 200 mg per mouse administered via IP measured after 2 hrs by LC-MS analysis. The format is ADME.
Data set [14] in a line: Drug metabolism in C57BL/6 mouse serum at 200 mg per mouse administered via oral dosing measured after 2 hrs by LC-MS analysis. It counts as ADME.
Data set [15] has as its system Mus musculus. As to the kind of experiment: In vivo inhibition of kynurenine production in C57BL/6 mouse serum at 100 mg per mouse administered via oral dosing and measured after 2 hrs by LC-MS analysis. The format is functional, organism-based.
Data set [16] has as its system Mus musculus. As to the kind of experiment: In vivo inhibition of kynurenine production in iv dosed mouse serum by LC/MS analysis. The format is functional, organism-based.
A short description of data set [17]: Stability in mouse serum after 1 hr. It counts as ADME.
A short description of data set [18]: Drug metabolism in mouse serum assessed as N-Cbz-L-alanine formation after 1 hr. The format is ADME, cell-free.
Data set [19] addresses Signal transducer and activator of transcription 3 (Homo sapiens) (UniProt P40763). As to the kind of experiment: Inhibition of STAT3 phosphorylation in IFN-gamma activated human A549 cells at 5 to 40 microg/ml by Western blotting analysis. It counts as cell-based. As to conditions: dose 5-40 µg/ml.
The test system of the next data set is A549. Put plainly: Reduction in IFN-gamma activated IDO1 expression level in human A549 cells at 1.25 to 40 microg/ml by Western blotting analysis. As to conditions: dose 1.25-40 µg/ml. It counts as functional, cell-based.

Each structure is given as a SMILES string. The source made the active and inactive calls. The calls are words filed in the database; no cut-off is given here.

Sequence of Indoleamine 2,3-dioxygenase 1 (Homo sapiens) (P14902 whole entry, looked up): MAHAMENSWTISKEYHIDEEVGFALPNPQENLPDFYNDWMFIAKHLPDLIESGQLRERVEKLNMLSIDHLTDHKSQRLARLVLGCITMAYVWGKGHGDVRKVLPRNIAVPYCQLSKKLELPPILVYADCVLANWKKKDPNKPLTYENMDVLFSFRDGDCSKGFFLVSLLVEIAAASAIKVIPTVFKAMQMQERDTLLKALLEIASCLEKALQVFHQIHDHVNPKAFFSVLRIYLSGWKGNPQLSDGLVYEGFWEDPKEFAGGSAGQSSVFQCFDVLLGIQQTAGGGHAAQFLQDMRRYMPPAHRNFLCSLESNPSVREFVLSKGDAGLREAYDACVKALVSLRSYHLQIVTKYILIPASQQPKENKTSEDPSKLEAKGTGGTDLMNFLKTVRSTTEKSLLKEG
Sequence of Signal transducer and activator of transcription 3 (Homo sapiens) (P40763 whole entry): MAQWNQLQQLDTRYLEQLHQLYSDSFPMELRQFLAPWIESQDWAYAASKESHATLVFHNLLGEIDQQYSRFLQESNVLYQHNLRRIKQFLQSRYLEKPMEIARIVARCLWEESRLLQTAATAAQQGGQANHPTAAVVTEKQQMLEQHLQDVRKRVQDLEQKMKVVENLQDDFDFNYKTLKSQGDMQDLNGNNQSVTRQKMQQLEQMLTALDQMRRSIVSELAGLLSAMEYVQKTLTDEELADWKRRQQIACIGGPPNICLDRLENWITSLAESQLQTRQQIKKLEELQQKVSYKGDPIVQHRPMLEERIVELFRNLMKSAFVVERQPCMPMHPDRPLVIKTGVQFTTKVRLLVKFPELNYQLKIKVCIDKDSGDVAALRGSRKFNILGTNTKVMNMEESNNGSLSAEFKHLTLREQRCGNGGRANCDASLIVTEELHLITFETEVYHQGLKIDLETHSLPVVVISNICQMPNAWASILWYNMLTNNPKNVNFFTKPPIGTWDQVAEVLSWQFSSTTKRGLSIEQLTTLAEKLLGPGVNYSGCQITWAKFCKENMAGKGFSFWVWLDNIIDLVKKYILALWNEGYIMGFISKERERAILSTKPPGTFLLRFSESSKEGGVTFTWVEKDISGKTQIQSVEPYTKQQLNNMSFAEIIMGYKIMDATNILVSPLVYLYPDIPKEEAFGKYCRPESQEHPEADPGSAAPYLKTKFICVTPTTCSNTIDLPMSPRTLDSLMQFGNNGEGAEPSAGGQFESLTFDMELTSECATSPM

As for `NS(=O)(=O)NCCNc1nonc1C(=NO)Nc1ccc(F)c(Br)c1` [EPACADOSTAT], in data set [1], the concentration at 2 h is 1400 nM.

With `O=C(N[C@@H](CO)C(=O)O)OCc1ccccc1`, the half-inhibitory concentration (IC50) in [2] and in [4] was > 100 µM throughout. Further, the inhibition in data set [3] was -5.5%.

Take `O=C(N[C@@H](CO)C(=O)NOCc1ccc([N+](=O)[O-])cc1)OCc1ccccc1`: the half-maximal inhibitory concentration (IC50) in data set [2] is 5.5 µM; in data set [4], > 100 µM. The inhibition in data set [3] is -9.2%. The Drug metabolism entry in [5] was “Metabolite_Detected”. In data set [6], the inhibition entry was “Active”.

In the case of `CONC(=O)[C@H](CO)NC(=O)OCc1ccccc1`, the 50% inhibitory concentration (IC50) in data set [2] and in data set [4] was > 100 µM throughout. Further, the inhibition in [3] is -8.3%.

With `O=C(N[C@H](CO)C(=O)NOCc1ccccc1)OCc1ccccc1`, the IC50 is 5.1 µM in data set [2] and > 100 µM in [4]. Further, in data set [3], the inhibition turned out to be 5.6%. Besides, the Drug metabolism result in data set [7] was “Metabolite_Detected”.

On to `O=C(NOCc1ccc([N+](=O)[O-])cc1)C12CC3CC(CC(O)(C3)C1)C2`, for which the IC50 in [2] and in [4] was > 100 µM in each case. Besides, the inhibition in data set [3] was -3.3%.

Take `O=C(N[C@@H](CO)C(=O)Nc1ccccc1O)OCc1ccccc1`: the IC50 in data set [2] and in data set [4] was > 100 µM each time. The inhibition in data set [3] is 2.9%.

As to `O=C(N[C@@H](Cc1c[nH]c2ccccc12)C(=O)NOCc1ccccc1)OCc1ccccc1`, the figures for the concentration for half-maximal inhibition (IC50) in data set [2] and in [4] were 12 µM and > 100 µM, respectively. Besides, the inhibition in [3] was 4.9%.

Take `Cl.NOCc1ccc([N+](=O)[O-])cc1`: the concentration for half-maximal inhibition (IC50) in data set [2] is 8 µM; in data set [4], > 100 µM. Besides, the inhibition in data set [3] was determined as 100%. The Stability entry in data set [8] is reported as “Unstable”. For the same compound, the inhibition entry in data set [6] is “Active”.

Consider `O=C(NOCc1ccc([N+](=O)[O-])cc1)C12CC3CC(CC(C3)C1)C2`, for which the half-inhibitory concentration (IC50) in data set [2] is 17 µM; in data set [4], > 100 µM. The inhibition in data set [3] worked out at 12%. Moreover, the inhibition entry (in the data set on Mus musculus [9]; in the data set on Mus musculus [10]; in data set [6]) was “inactive” throughout. Further, the values for the concentration at 2 h in data set [11] and in data set [12] were 18 nM and 3 nM, respectively. Besides, the Drug metabolism entry in [13] and in data set [14] was “Metabolite_Detected” each time. In [8], the Stability entry is given as “Stable”.

As for `N[C@@H](CO)C(=O)NOCc1ccccc1`, the IC50 is 5.5 µM in [2] and > 100 µM in data set [4]. The inhibition in data set [3] worked out at 0%.

With `CC12CC3CC(C)(C1)CC(C(=O)NOCc1ccccc1)(C3)C2`, the 50% inhibitory concentration (IC50) in data set [2] and in data set [4] was > 100 µM in each case. Further, the inhibition in [3] was found to be 7.9%.

Regarding `NS(=O)(=O)NCCNc1nonc1/C(=N/O)Nc1ccc(F)c(Br)c1`, the inhibition result with Mus musculus [15] is “Active”.

Consider `NOCc1ccccc1`, for which the values for the IC50 in data set [2] and in data set [4] were 10 µM and > 100 µM, respectively. For the same compound, the inhibition in data set [3] stood at 100%. In addition, the inhibition entry in [6] is “Active”.

Consider `O=[N+]([O-])c1ccc(CONS(=O)(=O)Cc2ccccc2)cc1`, for which the IC50 in [2] and in data set [4] was > 100 µM each time. Further, the inhibition in data set [3] is 0.19%.

Turning to `C[C@H](NC(=O)OCc1ccccc1)C(=O)NOCc1ccccc1`, the half-inhibitory concentration (IC50) in data set [2] was 5.2 µM; in [4], > 100 µM. For the same compound, in data set [3], the inhibition was -9.4%. In the data set with Mus musculus [16], the inhibition result is “inactive”. The Stability result in data set [17] is recorded as “Unstable”. Also, the Drug metabolism entry in data set [18] is reported as “Metabolite_Detected”.

`O=C(N[C@@H](CO)C(=O)NOCc1ccccc1)OCc1ccccc1`: the figures for the IC50 in data set [2] and in data set [4] were 4.6 µM and > 100 µM, respectively. The inhibition in [3] turned out to be 10%. Further, the inhibition entry in data set [19] is “inactive”. Further, the result in the data set on A549 was inactive. In addition, in data set [6], the inhibition entry is “Active”.

In the case of `O=C(NOCc1ccc([N+](=O)[O-])cc1)[C@H](O)c1ccccc1`, the IC50 was 24 µM in data set [2] and > 100 µM in data set [4]. Besides, in data set [3], the inhibition came out at 9%. In addition, the inhibition result in [6] was “inactive”.

In the case of `O=C(N[C@@H](CO)C(=O)NCCc1ccccc1)OCc1ccccc1`, the IC50 in [2] and in [4] was > 100 µM each time. For the same compound, in data set [3], the inhibition was -5.1%.

Usually IC50 stands for the concentration needed to halve the response being measured. A higher IC50 goes with weaker potency in that assay. Broadly, the inhibition is the relative decrease from the control value, in per cent.
